Laboratory results: US12521425B2, “Method of liver cancer treatment with safranal-based formulations” (priority 2019, dated 2026)

Experiments:
HepG2 cells [1] = experiment: Annexin V binding assay; type: cell-based; conditions: HepG2, 500 μM, after 48 hours; increase from 8%
[2] = system: DEN-induced hepatic neoplasia; experiment: Serum ALT and AST in DEN-induced HCC model; type: in vivo, male Wistar rats; conditions: HCC rats, oral gavage 5 days a week, weeks 17-19, safranal 200 mg/kg, sorafenib 10 mg/kg, mean±SEM, n=6
Experimental: (§1) A modified version of the protocol described by DePeralta et al. (2016) and Schiffer et al. (2005) was used here to establish the hepatocarcinogenesis model.
(§2) On the first 15 weeks, the control PBS group was treated with 1×PBS, whereas the experimental groups were given an intraperitoneal injection (IP) of 50 mg/kg of diethylnitrosoamine (DEN, Sigma Aldrich), a widely used chemical for inducing cancer, once a week. DEN was diluted with 1×PBS. Following a one-week break (week 16), the next three weeks (weeks 17 to 19) of treatment commenced. All drugs were administrated by oral gavage. All doses were chosen according to literature (Alsaied et al., 2014; Karafakioglu et al., 2017). For the HCC+sorafenib group, the drug (Carbosynth Limited) was administered at a dose of 10 mg/kg, five days a week. For the HCC+safranal group, the drug (Sigma Aldrich) was administered at a dose of 200 mg/kg, five days a week. For the HCC+safranal+sorafenib group, the drugs were administered at a dose of 200 mg/kg safranal+10 mg/kg sorafenib, five days a week. Both safranal and sorafenib were diluted with 1×PBS and drops of Tween 80. […] After 24-hours from last treatment, the rats were euthanized by mild diethyl ether and dissected in equal conditions. Blood and whole liver were collected.
Rats were euthanized then blood was collected by decapitation and processed for later investigation. The blood was collected in collection tubes (BD Vacutainer) and serum was separated by centrifugation at 1200× g for 10 minutes. Serum was collected and flash frozen immediately then stored at −80° C. for further analysis.
Alanine Transaminase (ALT), and Aspartate Aminotransferase (AST) assays were performed using commercial kits (Abcam), according to the protocol provided. ALT and AST activities were measured spectrophotometrically using Epoch by BioTek.

HepG2 cells [3] = experiment: Cell morphology, crystal violet; type: cell-based; conditions: HepG2, increasing doses, 24 hours
Experimental: Cell morphology. HepG2 were seeded at a density of 0.25×10^6 cells/well in 6-well plate. After allowing the cell to attach, HepG2 cells were treated without or with different concentrations of safranal (30, 50, 100, 500, 700 μM) for 24 hrs. After which, cells were fixed and stained with crystal violet. The morphology of the cells was assessed after being fixed and stained with 0.5% crystal violet using IX53 microscope (Olympus).

[4] = male rats, oral (Hosseinzadeh et al., 2013); cited from earlier work
HepG2 cells [5] = experiment: MTT assay, cell viability; type: cell-based; conditions: HepG2, 50-900 μM for 24, 48 and 72 hours; read-out: IC50, inhibition of cellular viability
Experimental: MTT assay. HepG2 cells were seeded at a density of 5000 cells/well in 96-well plates in 100 μL of complete growth medium. Cells were allowed to attach before being treated with different concentrations of safranal (Sigma Aldrich) (50 μM, 100 μM, 500 μM, 700 μM and 900 μM) for 24, 48 and 72 hours. After which, the cells were treated with 3-[4,5-dimethylthiazol-2-yl]-2,5-diphenyltratrazolium bromide (MTT) (Sigma Aldrich) and incubated for 3 hours. The formed formazan crystals were dissolved using DMSO and the absorbance of the resulting product was measured at 570 nm using an Epoch microplate spectrophotometer (Bio-Tek). Cell viability is presented as percentile of the untreated control which was calculated accordingly: Percent of viable cells=(Abs. of treated cells/Abs. of control cells)×100. *p≤0.05, **p≤0.001, ***p≤0.0001.

[6] = system: DEN-induced hepatic neoplasia; experiment: Liver gross and histopathological examination in DEN-induced HCC model; type: in vivo, male Wistar rats; conditions: HCC rats
Experimental: as §1, §2
Liver sample specimens were fixed in 10% neutral buffered formalin, dehydrated in a series of graded ethanol, embedded in paraffin blocks, and cut into 3 μm-thick sections. To detect histopathological changes, sections were stained with hematoxylin and eosin (H&E), and reticulin stain kit according to the protocol provided (Abcam), then examined under light microscope (Ozkececi et al., 2016). Blinded examination of tissue samples was carried out by a pathologist from Tawam Hospital—United Arab Emirates.

[7] = system: DEN-induced hepatic neoplasia; experiment: Western blotting of liver in DEN-induced HCC model; type: in vivo, male Wistar rats; conditions: liver of HCC rats
Experimental: as §1, §2
One hundredth gm (10 mg) liver was homogenized using 200 μl RIPA buffer (Sigma Aldrich) mixed with 2 μl protease inhibitor and 2 μl phosphatase inhibitor (Sigma Aldrich), and centrifuged at 4° C., 15,000 rpm for 15 minutes. Whole cell lysate was taken and stored at −80° C. Protein concentration was measured by Pierce BCA Protein Assay Kit with Promega GloMax Discover. A total of 35 μg of protein was loaded on a sodium dodecyl sulfate-polyacrylamide gel electrophoresis gel. The gel was then transferred to polyvinylidene difluoride membrane. The membrane was then blocked with 5% BSA in TBST for one hour at room temperature. Membranes were incubated with anti-Proliferating Cell Nuclear Antigen (PCNA), anti-PolyADP-ribose Polymerase (PARP), anti-caspase-3 (Cell Signaling Technology Inc.), anti-caspase-9 (Novus Biologicals), anti-Bax, anti-Bcl-2 (Santa Cruz), anti-Cdk1, anti-Cyclin B1, anti-Cdc25B (Cell Signaling Technology Inc.) over night at 4° C., then with HRP conjugated secondary, anti-mouse or anti-rabbit, antibody (Cell Signaling Technology Inc.) for one hour at room temperature. All primary and secondary antibodies were diluted in 5% BSA in TBST. Blots were incubated in WesternSure PREMIUM Chemiluminescent Substrate for antibodies' detection. Signal was visualized using Bio-Rad ChemiDoc XRS+System. Band density and quantification was done using ImageJ (Amin et al., 2011). Total protein was used as a loading control and stained using SYPRO Ruby protein gel stain according to the protocol provided (Thermo Fisher Scientific) (Aldridge et al., 2008; Hu et al., 2016).

CC1=C(C=O)C(C)(C)CC=C1 [safranal]
number of dead cells (annexin V) (HepG2 cells [1]): 31%
ALT [2]: 10.93 ± 0.29^b**^,c* mU/ml
AST [2]: 7.80 ± 2.02 mU/ml
morphological changes (HepG2 cells [3]): morphological alterations including more rounded cell shapes, cell shrinkage, and increased detachment
oral LD50 [4]: 5.53 mL/kg
IC50 (HepG2 cells [5]): 500 µM
area of neoplastic foci (histology) ([6]; H&E, versus HCC): restoration of the normal architecture of the liver
number of liver nodules / lesions ([6]; comparing to HCC animals): reduced lesions
reticular fibers (reticulin staining) ([6]; comparing to HCC group): reduced reticular fibers' breakage and restored their morphology
Bax/Bcl-2 ratio [7]: favored the apoptotic effect
TDP1 levels [7]: lower levels of TDP1
expression of pro-caspases-9 & 3 and whole PARP ([7]; compared to HCC group): significantly decreased
expression of anti-apoptotic protein Bcl-2 ([7]; compared to HCC groups): decreased
expression of pro-apoptotic protein Bax ([7]; compared to HCC groups): increased
Cdk1, cyclin B1, Cdc25B levels ([7]; comparing to HCC animals): significantly decreased their levels
PCNA (proliferation-related protein) ([7]; n=4): significantly downregulated PCNA
